According to patent US6335373B1, “Process to produce stabilized carnosic acid in high concentration” (Lycored Natural Products Industries, Ltd., priority 2000, dated 2002):

Legend:
[1] = Exposure of carnosic acid in an extract to room temperature and light; assay type: physicochemical; conditions: pH of the extract above 6
stephilococus = conditions: against stephilococus and dental caries, reported; cited from earlier work
[2] = Stabilization of carnosic acid in 60% ethanol rosemary extract with added acids, kept in the dark; assay type: physicochemical
Experimental: To 4.0 litre of ethanol (60%) are added 500 gr. of dried and finely ground rosemary leaves, having a concentration of 4.3% carnosic acid. Extraction is done for 3 hours at room temperature. 3.22 litre of extract are obtained by vacuum filtration of the biomass. The concentrate is divided to 200 ml. portions where different acids at various concentrations are added to these portions. All portions are kept in the dark and the variations in the carnosic acid concentrations of the different portions are checked. […] Only under acidic conditions is the concentration of carnosic acid retained where the optimal acids are phosphoric and ascorbic acid.

[3] = identified by Brieskorn and Domling in 1964; cited from earlier work

CC(C)c1cc2c(c(O)c1O)[C@@]1(C(=O)O)CCCC(C)(C)[C@@H]1CC2 [carnosic acid]
change in concentration of carnosic acid [1]: marked decrease
antibiotic action (stephilococus): antibiotic action
Concentration of Carnosic ([2]; Acetic 1%, +2 Hours): 4770 µg/mL
Concentration of Carnosic ([2]; Acetic 1%, +5 Hours): 4740 µg/mL
Concentration of Carnosic ([2]; Acetic 1%, +1 hour): 4760 µg/mL
Concentration of Carnosic ([2]; Acetic 1%, +24 hour): 4590 µg/mL
Concentration of Carnosic ([2]; Acetic 1%, +48 hours): 4260 µg/mL
Concentration of Carnosic ([2]; Acetic 1%, Time Zero): 4800 µg/mL
Concentration of Carnosic ([2]; Acetic 2%, +2 Hours): 4690 µg/mL
Concentration of Carnosic ([2]; Acetic 2%, +5 Hours): 4710 µg/mL
Concentration of Carnosic ([2]; Acetic 2%, +1 hour): 4790 µg/mL
Concentration of Carnosic ([2]; Acetic 2%, +24 hour): 4490 µg/mL
Concentration of Carnosic ([2]; Acetic 2%, +48 hours): 4230 µg/mL
Concentration of Carnosic ([2]; Acetic 2%, Time Zero): 4800 µg/mL
Concentration of Carnosic ([2]; Ascorbic 0.05%, +2 Hours): 4710 µg/mL
Concentration of Carnosic ([2]; Ascorbic 0.05%, +5 Hours): 4680 µg/mL
Concentration of Carnosic ([2]; Ascorbic 0.05%, +1 hour): 4750 µg/mL
Concentration of Carnosic ([2]; Ascorbic 0.05%, +24 hour): 4780 µg/mL
Concentration of Carnosic ([2]; Ascorbic 0.05%, +48 hours): 4790 µg/mL
Concentration of Carnosic ([2]; Ascorbic 0.05%, Time Zero): 4800 µg/mL
Concentration of Carnosic ([2]; Ascorbic 0.1%, +2 Hours): 4710 µg/mL
Concentration of Carnosic ([2]; Ascorbic 0.1%, +5 Hours): 4720 µg/mL
Concentration of Carnosic ([2]; Ascorbic 0.1%, +1 hour): 4740 µg/mL
Concentration of Carnosic ([2]; Ascorbic 0.1%, +24 hour): 4790 µg/mL
Concentration of Carnosic ([2]; Ascorbic 0.1%, +48 hours): 4790 µg/mL
Concentration of Carnosic ([2]; Ascorbic 0.1%, Time Zero): 4800 µg/mL
Concentration of Carnosic ([2]; Ascorbic 0.5%, +2 Hours): 4830 µg/mL
Concentration of Carnosic ([2]; Ascorbic 0.5%, +5 Hours): 4820 µg/mL
Concentration of Carnosic ([2]; Ascorbic 0.5%, +1 hour): 4860 µg/mL
Concentration of Carnosic ([2]; Ascorbic 0.5%, +24 hour): 4810 µg/mL
Concentration of Carnosic ([2]; Ascorbic 0.5%, +48 hours): 4820 µg/mL
Concentration of Carnosic ([2]; Ascorbic 0.5%, Time Zero): 4800 µg/mL
Concentration of Carnosic ([2]; Ascorbic 1%, +2 Hours): 4840 µg/mL
Concentration of Carnosic ([2]; Ascorbic 1%, +5 Hours): 4840 µg/mL
Concentration of Carnosic ([2]; Ascorbic 1%, +1 hour): 4830 µg/mL
Concentration of Carnosic ([2]; Ascorbic 1%, +24 hour): 4820 µg/mL
Concentration of Carnosic ([2]; Ascorbic 1%, +48 hours): 4800 µg/mL
Concentration of Carnosic ([2]; Ascorbic 1%, Time Zero): 4800 µg/mL
Concentration of Carnosic ([2]; Citric 0.1%, +2 Hours): 4560 µg/mL
Concentration of Carnosic ([2]; Citric 0.1%, +5 Hours): 4490 µg/mL
Concentration of Carnosic ([2]; Citric 0.1%, +1 hour): 4730 µg/mL
Concentration of Carnosic ([2]; Citric 0.1%, +24 hour): 4270 µg/mL
Concentration of Carnosic ([2]; Citric 0.1%, +48 hours): 4130 µg/mL
Concentration of Carnosic ([2]; Citric 0.1%, Time Zero): 4800 µg/mL
Concentration of Carnosic ([2]; Citric 0.5%, +2 Hours): 4580 µg/mL
Concentration of Carnosic ([2]; Citric 0.5%, +5 Hours): 4530 µg/mL
Concentration of Carnosic ([2]; Citric 0.5%, +1 hour): 4760 µg/mL
Concentration of Carnosic ([2]; Citric 0.5%, +24 hour): 4510 µg/mL
Concentration of Carnosic ([2]; Citric 0.5%, +48 hours): 4220 µg/mL
Concentration of Carnosic ([2]; Citric 0.5%, Time Zero): 4800 µg/mL
Concentration of Carnosic ([2]; Citric 1%, +2 Hours): 4530 µg/mL
Concentration of Carnosic ([2]; Citric 1%, +5 Hours): 4560 µg/mL
Concentration of Carnosic ([2]; Citric 1%, +1 hour): 4760 µg/mL
Concentration of Carnosic ([2]; Citric 1%, +24 hour): 4560 µg/mL
Concentration of Carnosic ([2]; Citric 1%, +48 hours): 4420 µg/mL
Concentration of Carnosic ([2]; Citric 1%, Time Zero): 4800 µg/mL
Concentration of Carnosic ([2]; Control, acid 0%, +2 Hours): 4420 µg/mL
Concentration of Carnosic ([2]; Control, acid 0%, +5 Hours): 4270 µg/mL
Concentration of Carnosic ([2]; Control, acid 0%, +1 hour): 4510 µg/mL
Concentration of Carnosic ([2]; Control, acid 0%, +24 hour): 3550 µg/mL
Concentration of Carnosic ([2]; Control, acid 0%, +48 hours): 2780 µg/mL
Concentration of Carnosic ([2]; Control, acid 0%, Time Zero): 4800 µg/mL
Concentration of Carnosic ([2]; HCI 0.1%, +2 Hours): 4680 µg/mL
Concentration of Carnosic ([2]; HCI 0.1%, +5 Hours): 4520 µg/mL
Concentration of Carnosic ([2]; HCI 0.1%, +1 hour): 4720 µg/mL
Concentration of Carnosic ([2]; HCI 0.1%, +24 hour): 3690 µg/mL
Concentration of Carnosic ([2]; HCI 0.1%, +48 hours): 2930 µg/mL
Concentration of Carnosic ([2]; HCI 0.1%, Time Zero): 4800 µg/mL
Concentration of Carnosic ([2]; HCI 1%, +2 Hours): 4720 µg/mL
Concentration of Carnosic ([2]; HCI 1%, +5 Hours): 4530 µg/mL
Concentration of Carnosic ([2]; HCI 1%, +1 hour): 4780 µg/mL
Concentration of Carnosic ([2]; HCI 1%, +24 hour): 4540 µg/mL
Concentration of Carnosic ([2]; HCI 1%, +48 hours): 4390 µg/mL
Concentration of Carnosic ([2]; HCI 1%, Time Zero): 4800 µg/mL
Concentration of Carnosic ([2]; HCI 2%, +2 Hours): 4700 µg/mL
Concentration of Carnosic ([2]; HCI 2%, +5 Hours): 4580 µg/mL
Concentration of Carnosic ([2]; HCI 2%, +1 hour): 4760 µg/mL
Concentration of Carnosic ([2]; HCI 2%, +24 hour): 4460 µg/mL
Concentration of Carnosic ([2]; HCI 2%, +48 hours): 4420 µg/mL
Concentration of Carnosic ([2]; HCI 2%, Time Zero): 4800 µg/mL
Concentration of Carnosic ([2]; Phosphoric 1%, +2 Hours): 4790 µg/mL
Concentration of Carnosic ([2]; Phosphoric 1%, +5 Hours): 4760 µg/mL
Concentration of Carnosic ([2]; Phosphoric 1%, +1 hour): 4820 µg/mL
Concentration of Carnosic ([2]; Phosphoric 1%, +24 hour): 4780 µg/mL
Concentration of Carnosic ([2]; Phosphoric 1%, +48 hours): 4790 µg/mL
Concentration of Carnosic ([2]; Phosphoric 1%, Time Zero): 4800 µg/mL
Concentration of Carnosic ([2]; Phosphoric 2%, +2 Hours): 4790 µg/mL
Concentration of Carnosic ([2]; Phosphoric 2%, +5 Hours): 4750 µg/mL
Concentration of Carnosic ([2]; Phosphoric 2%, +1 hour): 4770 µg/mL
Concentration of Carnosic ([2]; Phosphoric 2%, +24 hour): 4810 µg/mL
Concentration of Carnosic ([2]; Phosphoric 2%, +48 hours): 4780 µg/mL
Concentration of Carnosic ([2]; Phosphoric 2%, Time Zero): 4800 µg/mL
period for which carnosic acid is stable ([2]; in acidic polar solution containing water, lower alkyl alcohol and acid): more than 24 hours
decrease of carnosic acid ([2]; lack of acid): 50%
antioxidant activity [3]: very potent antioxidant
